Consider 86 molecules from PubChem BioAssay AID2305 (GlaxoSmithKline (GSK), 2010).

This test relates to P. falciparum 3D7 growth, pLDH absorbance. Kind of test: P. falciparum 3D7 growth inhibition, dose response, strain 3D7 (AID 2305).

pIC50: −log10 of the molar value. Where “and” joins values, the source holds several entries; their conditions need not be identical. Identical values can stand only once.

As for `Cc1cccc2c(C3CCN(CC4CCC(NC(=O)/C=C/c5ccc(Cl)c(Cl)c5)CC4)CC3)c[nH]c12` (stereo unspecified), the pIC50 is 5.99.
The result for `CC(C)OC(=O)c1ccc(NC(=O)N[C@@H](Cc2ccc(O)cc2)C(=O)NC2C[C@H]3CC[C@@H](C2)N3Cc2ccccc2)cc1` (stereo partly specified) reads 5.97; that for `O=C(CC(=O)Nc1cc(Cl)cc(Cl)c1)Nc1cc(Cl)cc(Cl)c1`, 6.80.
The result for `Cc1cccc2[nH]c(-c3cccc(-c4ccc(NC(=O)C5CC(=O)Nc6ccccc65)cc4)c3)nc12` (stereo unspecified) reads 6.16.
`CN1CCC(c2c[nH]c3ccc(NC(=O)Nc4ccc(-c5ccncc5)cc4Cl)cc23)CC1` showed a pIC50 of 6.08.
Consider `CN1CCN(Cc2cccc(-c3ccc4c(Nc5cc(O)c(Cl)cc5F)ccnc4c3)c2)CC1`, for which the pIC50 was 6.11.
`CCc1cn2c3c(cc(C(=O)N[C@@H](Cc4cc(F)cc(F)c4)[C@H](O)CNC4CC4)cc13)N(C)S(=O)(=O)CC2` gave a pIC50 of 6.92.
As for `O=C(Nc1cccc(F)c1)N(Cc1ccc(-c2cccc(CN3CCNCC3)c2)cc1)C1CCN(Cc2ccccc2)CC1`, the figure is 6.12; as for `N=C(N)c1cccc(-c2cc(-c3cccc(C(=N)N)c3)on2)c1`, 7.05; as for `CC(=O)Nc1ccc(OCCCCN(Cc2ccccc2OC(F)(F)F)c2ccc(C(F)(F)F)c(C#N)c2)c(Cl)c1`, 6.28.
The result for `Cc1ccc2[nH]c3c(c2c1)CC(C(=O)NCCC(C)C)NC31CCN(Cc2ccccc2)CC1` (stereo unspecified) reads 6.03.
As for `COc1cccc(CN2CCC(N3CCc4cc(NC(=O)c5cc(C)on5)ccc43)C2)c1OC` (stereo unspecified), the figure is 6.02; as for `O=C(C=Cc1ccc(Cl)c(Cl)c1)NCCCCCN1CCC(CCCNS(=O)(=O)c2ccc(Br)cc2)CC1`, 5.95; as for `CCN(CC)CCN(Cc1ccc(-c2ccc(C(F)(F)F)cc2)cc1)C(=O)Cn1c(SCc2ccc(F)c(F)c2F)nc(=O)c2c1CCC2`, 5.99.
Turning to `CN1CCC(NCc2cccc(-c3cccc(-c4nc5ccc(C(F)(F)F)cc5[nH]4)c3)c2)CC1`, the pIC50 is 6.85. This pIC50 lies 0.86 log units higher than the previous one.
Take `Cc1ccc(-c2cc(C(=O)Nc3ccc(S(=O)(=O)N4CCCC(C)C4)cc3)[nH]n2)c(O)c1` (stereo unspecified): the pIC50 is 6.55.
The result for `COc1ccc(CNC2CCN(C)CC2)cc1-c1ccc(S(=O)(=O)NCCc2ccccn2)c(C)c1` reads 5.94; that for `O=C(NOCCCCOc1ccc(Cl)c(Cl)c1)c1ccccc1`, 6.74; that for `O=C(NCc1cccc(F)c1)Nc1ccc(-c2ccc(-c3nc4ccc(C(F)(F)F)cc4[nH]3)cc2)cc1`, 6.11.
As for `FC(F)(F)c1cc(C(F)(F)F)c2cc(CNCCCNc3nc4ccccc4[nH]3)[nH]c2c1`, the pIC50 is 6.85.
As for `Cc1ccc(NC(=O)NC2CCN(CCC(NC(=O)Cc3ccccc3)c3ccc(Cl)c(Cl)c3)CC2)cc1` (stereo unspecified), the figure is 6.21; as for `c1nc2nc3c(c(Nc4ccc5c(c4)CCC5)n2n1)CCC3`, 6.04; as for `Cc1cccc2[nH]c(-c3ccc(-c4ccc(CN5CCCC(O)C5)cc4)cc3)nc12` (stereo unspecified), 6.07.
The result for `Cn1cncc1CNCc1ccc(-c2cccc(-c3nc4ccccc4[nH]3)c2)cc1` reads 6.64.
The result for `Oc1ccccc1Nc1nc(NCc2ccco2)c2ccccc2n1` reads 6.19; that for `CN(C)c1cc(NC(=O)Nc2ccccc2)c2ccccc2n1`, 6.39; that for `COc1cc(F)c2ncc(Cl)c(CCN3CCC(NCc4ccc5c(n4)NC(=O)CS5)CC3)c2c1`, 6.32.
Regarding `Cc1ccc(CNc2ccc3ncc(-c4cccc(C(=O)NCCN(C)C)c4)n3n2)c(C)c1`, the pIC50 was 6.23. This pIC50 and that of the molecule before are within 0.2 log units of each other.
The result for `CC(C)Sc1nc2c(c(=O)n1CCc1ccccc1)C1(CCCC1)Cc1ccccc1-2` reads 6.46; that for `CC(C)C[C@H](NC(=O)c1ccc(F)cc1)C(=O)N[C@H](/C=N/NC(=O)c1ccccc1)CCc1ccccc1`, 6.09; that for `CN1[C@@H]2CC[C@H]1c1cc(NC(=O)c3cc(-c4ccc(Cl)cc4)cs3)ccc12`, 5.89.
The result for `COc1cccc(Nc2nnc(SCC(=O)NNC(=O)c3ccccn3)s2)c1` reads 6.42; that for `CC(=O)Nc1ccc(C#Cc2ccc(-c3c(C)[nH]c(C)c(Cl)c3=O)cc2)cc1`, 6.34.
Molecule `O=C(Nc1cccc(-c2ccc(-c3nc4ccc(F)cc4[nH]3)s2)c1)c1ccncc1` showed a pIC50 of 6.15.
As for `Cc1cc2c(cc1C(F)(F)F)N(C(=O)Nc1ccc(OCCN(C)C)c(C(F)(F)F)c1)CC2`, the figure is 6.04.
The result for `Cc1ccc2cc(NCCCCCCCCON3C(N)=NC(N)=NC34CCCCC4)ccc2n1` reads 6.80; that for `COc1ccc(CNCc2ccccc2)cc1-c1ccc(S(=O)(=O)NCCN2CCCC2)cc1`, 6.09; that for `O=C(NCc1ccc(F)cc1)c1ccc(N2CCN(c3ccncc3)CC2)cn1`, 6.05.
The result for `O=C(Cc1cccnc1)N(Cc1ccc(-c2ccc(CNCc3cccnc3)cn2)cc1)C1CCN(Cc2ccccc2)CC1` reads 6.10; that for `COc1ccc2nc3cc(Cl)ccc3c(NCCNCC(O)CO)c2n1` (stereo unspecified), 6.82.
The molecule `O=c1cc(NCCCNC2CCOc3c(Cl)cccc32)[nH]c2ccccc12` (stereo unspecified) showed a negative logarithm of the IC50 (pIC50) of 6.08. This pIC50 lies 0.74 log units lower than the previous one.
The result for `c1ccc2c(NCCCCCCCCNc3ccnc4ccccc34)ccnc2c1` reads 6.80.
Molecule `O=C(CCNc1ccnc(NCC2CCCCC2)n1)Nc1ccccc1` had a pIC50 of 5.96.
The result for `Cc1ccc(C(C#N)c2ccc3c(C(F)(F)F)cc(C(F)(F)F)nc3n2)cc1` (stereo unspecified) reads 6.15.
As for `CC1(C)N=C(N)N=C(N)C1c1ccc(Cl)c(Cl)c1` (stereo unspecified), the figure is 7.52.
As for `O=C(NCCCN1CCOCC1)c1ccc(-c2cccc(NC(=O)c3ccc(Cl)c(Cl)c3)c2)cc1`, the figure is 6.17; as for `O=C(/C=C/c1ccc(Cl)c(Cl)c1)N1CCC(CN2CCC(Cc3c[nH]c4ccccc34)CC2)CC1`, 6.17.
Regarding `Cc1cccc2[nH]c(-c3ccc(-c4ccc(CN5CCN(c6ccncc6)CC5)cc4)cc3)nc12`, the pIC50 is 6.80.
The molecule `Cc1cc(N[C@@H](Cc2ccccc2)C(=O)NCc2cccc(F)c2)nc(NCCc2ccc(F)cc2)n1` gave a negative logarithm of the IC50 (pIC50) of 6.19. Against the preceding molecule, the pIC50 is 0.61 log units lower.
The result for `CNc1ccc(CNCc2cccc(-c3ccc(-c4nc5c(C)cccc5[nH]4)s3)c2)cc1` reads 6.00; that for `CN=C(N)c1ccc(NC(=O)Nc2ccc(C(N)=NC)cc2)cc1`, 6.24; that for `COc1ccc2nccc([C@@H](O)CN3CCC(NCc4nc5c(C#N)cccc5[nH]4)CC3)c2c1`, 6.00.
The result for `Oc1ccc(CCNc2nc(NCCCOc3ccccc3-c3cccc(C(F)(F)F)c3)nc(N3CCNCC3)n2)cc1` reads 6.06; that for `CCOC(=O)c1ccc(NC(=O)Nc2cccc(-c3cccc(-c4nc5c(C)cccc5[nH]4)c3)c2)cc1`, 6.96; that for `Cc1ccc(C[C@H](C)NC[C@H](O)c2cccc(C(F)(F)F)c2)cc1`, 6.01.
As to `O=C(/C=C/c1ccc(Cl)c(Cl)c1)N1CCC(CCN2CCC(c3c[nH]c4cc5c(cc34)OCO5)CC2)CC1`, the negative logarithm of the IC50 (pIC50) is 6.14. This pIC50 and that of the molecule before are within 0.2 log units of each other.
The result for `CC1(CCCCN2CCC(Oc3ccc(F)cc3F)CC2)C(=O)Nc2ccccc21` (stereo unspecified) reads 6.12.
The result for `CCCCN1CCCN(Cc2cccc(NC(=O)c3ccc(-c4ccccc4)cc3)c2)CC1` reads 5.99; that for `O=C(C=Cc1ccc(Cl)c(Cl)c1)NCCCCCN1CCCC(CCCNC(=O)c2cccs2)C1` (stereo unspecified), 5.89; that for `Cc1ccc(O)cc1C[C@@H]1C(=O)CC[C@@]2(C)[C@H]1CC[C@]2(C)O`, 6.02.
The result for `Cc1nnc2c(NC(=O)NC3CCCC3)cc3ccc(-c4cccc(CN5CCN(C)CC5)c4)cc3n12` reads 6.04; that for `Cn1cc(CN2CCCC(COC(c3ccc(F)cc3)c3ccc(F)cc3)C2)cn1` (stereo unspecified), 6.24; that for `NC(N)=NN=Cc1ccc2ccc3ccccc3c2c1`, 6.42.
The molecule `Cc1ccc2nc3c(cc(C(=O)NCc4ccccc4)c(=N)n3CCCn3ccnc3)c(=O)n2c1` had a negative logarithm of the IC50 (pIC50) of 6.00. This pIC50 lies 0.42 log units lower than the previous one.
The result for `CCCCCC(C)C(C)c1cc(OC(N)=O)c2c(c1)OC(C)(C)C=C2c1ccncc1` (stereo unspecified) reads 6.05; that for `CCCCSc1ccc2nc(-c3c[nH]c4ccc(C#N)cc34)cn2c1`, 6.02; that for `O=c1[nH]ccc2nc(N[C@@H]3CCNC3)nc(Nc3ccc4c(c3)S(=O)(=O)CC4)c12`, 6.42.
The result for `CNCCCN(C)C(=O)Oc1c(Br)c(C)nc(C)c1-c1ccc(Oc2ccc(OC(F)(F)F)cc2)cc1` reads 6.41; that for `CC(C)C1C(O)=C(c2ccc3ccccc3c2)C(=O)N1Cc1cccc(F)c1` (stereo unspecified), 6.09; that for `O=C(NCc1cccc(CN2CCOCC2)c1)c1cc(Br)cc(N2CCN(c3ccncc3)CC2)c1`, 6.07.
For `CC1CCCC(Nc2noc(-c3sccc3Br)n2)C1` (stereo unspecified), the pIC50 is 6.16.
The result for `c1cc(CN2CCC(CCN3CCCCC3)CC2)cc(-c2cccc(-c3nc4ccccc4[nH]3)c2)c1` reads 6.85.
The result for `NC(=O)c1cc2nc(Nc3ccc(F)cc3)nc(NC3CCC3)c2[nH]1` reads 6.70; that for `O=C(NCc1cc2c(cc1Cl)OCO2)c1ccc(CNC2CCN(Cc3ccccc3)CC2)cc1`, 6.08.
The result for `FC(F)(F)c1ccc(CNCC2CCN(Cc3ccc4c(c3)OCO4)CC2)cc1` reads 5.87.
With `COc1cc(C=C(C2=NC(=O)CS2)c2nc3cccnc3n2C)ccc1O`, the pIC50 was 6.00. This pIC50 and that of the molecule before are within 0.2 log units of each other.
For the molecule `COc1ccc(Nc2ccnc3cc(Cl)ccc23)cc1OC`, the pIC50 was 5.95.
The result for `CCN(CC)CCN(Cc1ccc(-c2ccc(C(F)(F)F)cc2)cc1)C(=O)Cn1c(CCc2ccccc2F)nc(=O)c2ccccc21` reads 6.03.
The result for `CC(=O)Nc1ccc2[nH]cc(C3CCN(CC4CCC(NC(=O)/C=C/c5ccc(Cl)c(Cl)c5)CC4)CC3)c2c1` (stereo unspecified) reads 6.36 and 6.14.
As for `Cc1ccc2nc(-c3cc(-c4ccc(OCc5ccccc5)cc4)cnc3N)[nH]c2c1`, the figure is 5.77.
`CCn1c(-c2nonc2N)nc2c(C#CC(C)(C)O)ncc(OCCNCCc3ccc(OC)cc3)c21`: the pIC50 is 6.02.
The result for `Cc1nnsc1C(=O)Nc1cccc(-c2cccc(-c3nc4c(C)cccc4[nH]3)c2)c1` reads 6.57.
The molecule `Cc1cccc2[nH]c(-c3ccc(-c4ccc(NC(=O)NCc5ccc(F)cc5)cc4)cc3)nc12` had a pIC50 of 5.88. Against the preceding molecule, the pIC50 is 0.69 log units lower.
As for `CN(C)c1ccc(CN2CCC(CNC(=O)c3cc(-c4ccccc4Cl)cs3)C2)cc1` (stereo unspecified), the figure is 5.84; as for `COc1ccc2[nH]c(C(=O)Nc3cccc(-c4ccc(CN(C)C)cc4)c3)cc2c1`, 6.04; as for `COc1ccc(Nc2nc(N)c3cc(OC)c(OC)cc3n2)cc1OC`, 6.14.
